Experimental data as given in patent US20120164674A1, “DEVICES AND WASHES FOR BIOMARKER STABILIZATION” (priority 2010, published 2012).

T1: Lysozyme (Homo sapiens, UniProt P61626)
T1 construct: from tissue; host or cells: saliva (3.5% dilute or 100%)
T1 sequence (P61626 19-148): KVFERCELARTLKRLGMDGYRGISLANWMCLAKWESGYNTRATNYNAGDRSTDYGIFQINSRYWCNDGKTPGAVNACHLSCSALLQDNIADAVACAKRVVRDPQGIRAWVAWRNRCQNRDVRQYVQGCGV

B1: Soybeans: primary soybean protease inhibitor, 20.7-22.3 kDa (protein, UniProt P01070 25-205, looked up)
Trypsin inhibitor A: DFVLDNEGNPLENGGTYYILSDITAFGGIRAAPTGNERCPLTVVQSRNELDKGIGTIISSPYRIRFIAEGHPLSLKFDSFAVIMLCVGIPTEWSVVEDLPEGPAVKIGENKDAMDGWFRLERVSDDEFNNYKLVFCPQQAEDDKCGDIGISIDHDDGTRRLVVSKNKPLVVQFQKLDKESL

Legend:
peroxidase = experiment: Peroxidase assay in saliva (Amplex Red); assay type: biochemical; details: 500 ppm, 30 minutes, FIGS. 26-29
Galactose Oxidase = details: dilute (3.5%) saliva; FIG. 13
Lysozyme = molecular target: T1, Lysozyme; experiment: Lysozyme inhibition saliva screening (fluorescein-labeled Micrococcus lysodeikticus); assay type: biochemical; details: for inhibition of Lysozyme: 100% saliva samples (data not shown); for RFU Reading (60 mins): saliva, test compound prepared at 5,000 ppm; for Lysozyme Inhibitor Activity: dilute (3.5%) saliva, FIG. 12
Excerpt: At least one assay used for the detection of […], as used herein includes the use of a Micrococcus lysodeikticus labeled with fluorescein. The assay measures lysozyme activity on Micrococcus lysodeikticus cell walls, which are labeled to such a degree that the fluorescence is quenched. Lysozyme activity can relieve this quenching; yielding increased fluorescence that is proportional to lysozyme activity.
For the assay, test compounds are mixed with saliva, prior to the addition of lysozyme substrate. The test compounds, such as GRAS materials, are prepared at a concentration of 5,000 ppm in distilled water. Following this preparation, 50 μl of lysozyme substrate at 1 mg/ml (Molecular Probes EnzChek Lysozyme Assay Kit) that has been pre-heated to 37° C. is added to 50 μl of the test compound. To initiate the assay, 50 μl of a dilute (3.5%) or full strength (100%) saliva solution is added to the mixture. Following the initiation, each mixture is measured at 1 minute intervals using a spectrophotometer (such as Molecular Devices M5 reader) for absorption at 494 nm and fluorescence emission at 518 nm. Temperatures of the mixtures are kept constant at 37° C. during the assay.
A series of GRAS compounds were tested using the Lysozyme assay protocol described above. […] Further details of these five compounds may also be seen in Table 5.

protease = details: cited from earlier work

Molecule | peroxidase inhibition (peroxidase) | Galactose Oxidase Inhibitor Activity (Galactose Oxidase) | inhibition of Lysozyme (Lysozyme) | RFU Reading (60 mins) (Lysozyme) [RFU] | Lysozyme Inhibitor Activity (Lysozyme) | Inhibitory power (protease) [times times weight]
O=C(O)c1ccccc1 [CDI #16, Benzoic acid] | significant peroxidase inhibition capabilities | – | – | – | – | –
Cn1c(=O)c2c(ncn2C)n(C)c1=O [CDI #33, Caffeine] | significant peroxidase inhibition capabilities | – | – | – | – | –
COc1ccc(O)c(C(C)(C)C)c1 [CDI-039, 3-tert--butyl-hydroxyanisole] | significant peroxidase inhibition capabilities | shown to have Galactose Oxidase Inhibitor Activity | – | – | – | –
O=C(O)c1ccccc1 [CDI-40, Benzoic acid] | – | shown to have Galactose Oxidase Inhibitor Activity | shown to inhibit Lysozyme | 35.82 | shown to have Lysozyme Inhibitor Activity | –
CC(=O)O [CDI-047, Acetic acid] | – | shown to have Galactose Oxidase Inhibitor Activity | shown to inhibit Lysozyme | 33.53 | shown to have Lysozyme Inhibitor Activity | –
B1 | – | – | – | – | – | 1.2
